This is an account of results in ChEMBL document CHEMBL6074662, “Antibacterial, Antibiofilm, and Anti-inflammatory Effects of a Novel Thrombin-Derived Peptide in Sepsis Models: Insights into Underlying Mechanisms” (J Med Chem, 2024).

A short description of data set [1]: Proteolytic stability of compound assessed as trypsin (unknown origin)-mediated drug degradation at 150 uM incubated for 24 hrs by RP-HPLC analysis. In kind it is ADME. Conditions: human.
Data set [2] has as its system Escherichia coli. In words: Antibacterial activity against Escherichia coli KCTC 1682 assessed as zone of clearance incubated for 4 hrs in presence of pepsin by radical diffusion assay. In kind it is functional, organism-based.
For data set [3], the system named is Escherichia coli. In words: Antibacterial activity against Escherichia coli KCTC 1682 assessed as zone of clearance incubated for 4 hrs in presence of proteinase K by radical diffusion assay. In kind it is functional, organism-based.
In data set [4] the test system is Escherichia coli. Put plainly: Antibacterial activity against Escherichia coli KCTC 1682 assessed as zone of clearance incubated for 4 hrs in presence of trypsin by radical diffusion assay. It counts as functional, organism-based.
The subject of the next data set is Staphylococcus aureus. Put plainly: Synergistic bactericidal activity against methicillin-resistant Staphylococcus aureus CCARM 3089 at 0.5 to 2 uM incubated for 12 hrs in presence of oxacillin by time-kill assay. Conditions: dose 0.5-2 µM. In kind it is functional, organism-based.
In data set [5] the test system is Mus musculus. Put plainly: Antiseptic activity in sepsis shock ICR mouse model infected with carbapenem-resistant Acinetobacter baumannii assessed as recovery of neutrophil infiltration in lungs at 1 mg/kg, ip pretreated with compound for 1 hr followed by bacterial infection measured after 16 hrs by H and E staining based analysis. In kind it is functional, organism-based. Conditions: time 17.0 hrs.

The species entered for a further data set is Homo sapiens. Put plainly: Binding affinity to CM5 chip-immobilized TLR4/MD2 (unknown origin) complex by SPR analysis.
Data set [6] deals with Mus musculus. Put plainly: Antiseptic activity in sepsis shock ICR mouse model infected with carbapenem-resistant Acinetobacter baumannii assessed as reduction in bacterial count in liver at 1 mg/kg, ip pre-infected with bacteria followed by compound administration 1 hr post-infection measured after 16 hrs relative to control. It counts as functional. Also on record: scale not given: the % may be the effect or the level left.

In data set [7] the test system is Acinetobacter baumannii. Put plainly: Antibacterial activity against carbapenem-resistant Acinetobacter baumannii 1915 incubated for 24 hrs by CLSI based broth microdilution method. In kind it is functional, organism-based. In general terms: In broth dilution the organism is exposed to a series of concentrations in liquid medium.
The subject of data set [8] is Lipopolysaccharide (LPS). In words: Displacement of BODIPY-TR-cadaverine from Escherichia coli 0111:B4 LPS incubated for 30 mins by fluorescence based assay. Conditions: dose <= 32.0 µM.
Data set [9] concerns Mus musculus. Put plainly: Antiseptic activity in sepsis shock ICR mouse model infected with carbapenem-resistant Acinetobacter baumannii assessed as reduction in serum IL-6 level at 1 mg/kg, ip pretreated with compound for 3 hrs followed by bacterial infection measured after 16 hrs relative to control. In kind it is functional. On the set-up: scale not given: the % may be the effect or the level left. Conditions: time 19 hrs.

The subject of data set [10] is RAW264.7. In words: Inhibition of cell binding activity of FITC-labeled LPS to surface receptors of mouse RAW264.7 cells at 8 uM incubated for 1 hr by flow cytometry. In kind it is cell-based. For orientation: Flow cytometry measures light scatter and fluorescence of single cells or particles in a stream.
The target of data set [11] is T1, Toll-like receptor 4 (Mus musculus) (UniProt Q9QUK6).
T1 sequence (whole entry): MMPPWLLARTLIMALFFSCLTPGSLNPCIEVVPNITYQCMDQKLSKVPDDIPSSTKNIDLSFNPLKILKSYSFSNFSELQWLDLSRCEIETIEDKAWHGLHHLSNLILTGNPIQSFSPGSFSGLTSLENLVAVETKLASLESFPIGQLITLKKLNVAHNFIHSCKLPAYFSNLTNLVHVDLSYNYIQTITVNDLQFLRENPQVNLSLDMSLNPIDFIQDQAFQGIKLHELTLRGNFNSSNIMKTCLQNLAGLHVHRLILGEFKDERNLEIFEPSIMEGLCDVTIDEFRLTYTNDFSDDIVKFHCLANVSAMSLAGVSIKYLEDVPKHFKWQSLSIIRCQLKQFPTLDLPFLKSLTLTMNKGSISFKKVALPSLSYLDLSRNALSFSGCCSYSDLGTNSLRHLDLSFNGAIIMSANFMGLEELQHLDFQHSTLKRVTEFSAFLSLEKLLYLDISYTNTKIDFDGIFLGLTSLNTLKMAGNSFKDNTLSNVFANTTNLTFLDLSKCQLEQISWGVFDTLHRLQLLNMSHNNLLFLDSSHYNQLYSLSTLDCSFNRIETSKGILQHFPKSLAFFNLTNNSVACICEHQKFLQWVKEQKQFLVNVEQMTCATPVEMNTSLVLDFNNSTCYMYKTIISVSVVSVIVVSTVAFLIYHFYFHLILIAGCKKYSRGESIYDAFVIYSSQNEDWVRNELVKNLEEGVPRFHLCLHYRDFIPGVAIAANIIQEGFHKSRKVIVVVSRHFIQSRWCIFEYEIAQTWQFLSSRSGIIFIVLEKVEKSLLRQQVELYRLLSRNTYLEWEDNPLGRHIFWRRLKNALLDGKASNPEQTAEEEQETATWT
In words: Inhibition of LPS-induced TLR4 activation in mouse RAW264.7 cells assessed as decrease in ERK phosphorylation at 2 uM pretreated for 1 hr followed by LPS treatment for 30 mins by Western blot analysis relative to control. It counts as cell-based. Conditions: time 90.0 min. (A western blot detects proteins with antibodies after separation by electrophoresis.)

Data set [12] concerns RAW264.7. In words: Anti-inflammatory activity in mouse RAW264.7 cells assessed as decrease in LPS-induced NO production upto 10 uM pretreated for 1 hr followed by LPS treatment for 16 hrs by Griess assay. It counts as functional, cell-based. Conditions: time 17.0 hrs.
Data set [13] can be described thus: Effect on secondary structure of drug in TFE assessed as formation of left-handed alpha-helical conformation at 150 uM by CD analysis. In kind it is physicochemical.
The test system of data set [14] is Mus musculus. Put plainly: Antiseptic activity in sepsis shock ICR mouse model infected with carbapenem-resistant Acinetobacter baumannii assessed as decrease in ALT level in serum at 1 mg/kg, ip pretreated with compound for 1 hr followed by bacterial infection measured after 16 hrs relative to control. It counts as functional. Also on record: scale not given: the % may be the effect or the level left. Conditions: time 17 hrs.

Data set [15] has as its system Acinetobacter baumannii. In words: Antibacterial activity against carbapenem-resistant Acinetobacter baumannii-induced sepsis shock in ICR mouse model assessed as bacterial growth inhibition in liver at 1 mg/kg, ip pretreated with compound for 1 hr followed by bacterial infection measured after 16 hrs relative to control. It counts as functional. Conditions: time 17 hrs.

Data set [16] has as its system Mus musculus. In words: Antiseptic activity in sepsis shock ICR mouse model infected with carbapenem-resistant Acinetobacter baumannii assessed as decrease in BUN level in serum at 1 mg/kg, ip pretreated with compound for 1 hr followed by bacterial infection measured after 16 hrs relative to control. It counts as functional. Also on record: scale not given: the % may be the effect or the level left. Conditions: time 17 hrs.

Data set [17] relates to Mus musculus. In words: Antiseptic activity in sepsis shock ICR mouse model infected with carbapenem-resistant Acinetobacter baumannii assessed as reduction in bacterial count in liver at 1 mg/kg, ip pre-infected with bacteria followed by compound administration 3 hrs post-infection measured after 16 hrs relative to control. In kind it is functional. On the set-up: scale not given: the % may be the effect or the level left.

Data set [18] concerns Mus musculus. Put plainly: Antiseptic activity in sepsis shock ICR mouse model infected with carbapenem-resistant Acinetobacter baumannii assessed as reduction in bacterial count in liver at 1 mg/kg, ip pretreated with compound for 3 hrs followed by bacterial infection measured after 16 hrs relative to control. It counts as functional. On the set-up: scale not given: the % may be the effect or the level left. Conditions: time 19 hrs.

The subject of data set [19] is Mus musculus. Put plainly: Antiseptic activity in sepsis shock ICR mouse model infected with carbapenem-resistant Acinetobacter baumannii assessed as decrease in TNF-alpha level in serum at 1 mg/kg, ip pretreated with compound for 1 hr followed by bacterial infection measured after 16 hrs relative to control. It counts as functional. On the set-up: scale not given: the % may be the effect or the level left. Conditions: time 17 hrs.

Data set [20] can be described thus: Effect on secondary structure of drug in SDS assessed as formation of left-handed alpha-helical conformation at 150 uM by CD analysis. It counts as physicochemical.
For data set [21], the system named is Lipopolysaccharide (LPS). Put plainly: Displacement of BODIPY-TR-cadaverine from cell-free LPS (unknown origin) incubated for 30 mins by fluorescence based assay. Conditions: dose <= 32.0 µM.
Data set [22] concerns Lipopolysaccharide (LPS). In words: Displacement of BODIPY-TR-cadaverine from cell-free LPS (unknown origin) at 16 uM incubated for 30 mins by fluorescence based assay relative to control.

Calls of active or inactive are those of the source. The rule behind the calls is not given here.

Consider H-GVFRLKKWIKKVIKKWGK-NH2, for which, in data set [1], the Stability entry is reported as “Unstable”. For the same substance, the result in the data set on Escherichia coli [2], in the data set with Escherichia coli [3] and in the data set with Escherichia coli [4] was inactive. In addition, in the data set with Staphylococcus aureus, the result was Active.
One may read the inhibition as the share of the control response that was lost under treatment. In general, inhibition in vivo refers to how much of the control response was suppressed. Regarding H-GVFRLKKWLKKVKKWGK-NH2, the result in the data set with Mus musculus [5], in the data set with Acinetobacter baumannii [7] and in the data set on RAW264.7 [12] was Active. The Activity in the data set filed under Homo sapiens is 9.4 10^-7M; with Mus musculus [6], 97.7%; in the data set on Lipopolysaccharide (LPS) [8], “Dose-dependent-effect; Activity Similar To Ll-37”; in the data set on Mus musculus [9] it was 99.9%; in data set [13], “Active”; in the data set on Mus musculus [14], 67.8%. The Activity with Mus musculus [16] is on record as 56.7%; in the data set with Mus musculus [17] it was 90.7%; with Mus musculus [18], 99.4%; in the data set on Mus musculus [19] it was 49.4%; in data set [20], “Active”; with Lipopolysaccharide (LPS) [21] it was “Dose-dependent-effect; Activity Similar To Ll-37”. This substance also gave an Activity with Lipopolysaccharide (LPS) [22] of 80%. Moreover, the figures for the inhibition entry (in the data set on RAW264.7 [10]; in [11]) were “Active; Activity Comparable To Ll-37 And Pmb” and 27%, respectively. Further, the inhibition in vivo at 1 mg/kg in the data set on Acinetobacter baumannii [15] was determined as 95.7%.
